In PMC3790769, “Ansamitocin P3 Depolymerizes Microtubules and Induces Apoptosis by Binding to Tubulin at the Vinblastine Site” (PLoS ONE, 2013):

Target: T1, tubulin
T1 construct: tubulin isolated from goat brain (alpha-beta dimer); with alpha-tubulin/beta-tubulin heterodimer
Assay: intrinsic tryptophan fluorescence quenching of purified tubulin; supported by reduced DTNB cysteine modification
Type: binding, Capra hircus

COc1cc2cc(c1Cl)N(C)C(=O)C[C@H](OC(=O)C(C)C)[C@]1(C)O[C@H]1[C@H](C)[C@@H]1C[C@@](O)(NC(=O)O1)[C@H](OC)/C=C/C=C(\C)C2 [Ansamitocin P3]
Kd: 1.3 ± 0.7 µM
